Measured values as given in patent publication US8802597B2, “Herbicidal pyrimidines” (E I du Pont de Nemours and Company, priority 2003, dated 2014).
Like-named read-outs stand apart in the source and are kept apart here.

Columns and labels:
Assay in all cases: Test C pre/postemergence
Type in all cases: in vivo
[1] = test system: bermudagrass (Cynodon dactylon); settings: Cynodon dactylon; for pest or weed control at 62 g/ha: 62 g ai/ha; for pest or weed control at 125 g/ha: 125 g ai/ha; for pest or weed control at 250 g/ha: 250 g ai/ha; for pest or weed control at 500 g/ha: 500 g ai/ha
Method in brief: (§1)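 We sprayed seeded pots preemergence and 2–18 cm seedlings postemergence with test chemicals in a non-phytotoxic solvent mixture including surfactant. Greenhouse plants were visually compared with untreated controls at 12 to 14 days and scored 0 (no effect) to 100 (complete control).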

[2] = test system: Surinam grass (Brachiaria decumbens); settings: Urochloa decumbens; for pest or weed control at 125 g/ha: 125 g ai/ha; for pest or weed control at 500 g/ha: 500 g ai/ha; for pest or weed control at 250 g/ha: 250 g ai/ha
Method in brief: as §1

[3] = test system: goosegrass (Eleusine indica); settings: Eleusine indica; for pest or weed control at 62 g/ha: 62 g ai/ha; for pest or weed control at 125 g/ha: 125 g ai/ha; for pest or weed control at 250 g/ha: 250 g ai/ha; for pest or weed control at 500 g/ha: 500 g ai/ha
Method in brief: as §1

[4] = test system: giant foxtail (Setaria faberii); settings: Setaria faberi; for pest or weed control at 125 g/ha: 125 g ai/ha; for pest or weed control at 500 g/ha: 500 g ai/ha; for pest or weed control at 62 g/ha: 62 g ai/ha; for pest or weed control at 250 g/ha: 250 g ai/ha
Method in brief: as §1

[5] = test system: yellow nutsedge (Cyperus esculentus); settings: Cyperus; for pest or weed control at 62 g/ha: 62 g ai/ha; for pest or weed control at 125 g/ha: 125 g ai/ha; for pest or weed control at 250 g/ha: 250 g ai/ha; for pest or weed control at 500 g/ha: 500 g ai/ha
Method in brief: as §1

[6] = test system: lambsquarters (Chenopodium album); settings: Chenopodium album; for pest or weed control at 62 g/ha: 62 g ai/ha; for pest or weed control at 125 g/ha: 125 g ai/ha
Method in brief: as §1

[7] = post-emergence, Postemergence, scale 0 to 100 (0 no effect, 100 complete control), read-out: Bermudagrass plant response rating
[8] = post-emergence, Postemergence, scale 0 to 100, read-out: Plant response rating, Bermudagrass
[9] = pre-emergence, Preemergence, scale 0 to 100, read-out: Plant response rating, Bermudagrass
[10] = post-emergence, Postemergence, scale 0 to 100, read-out: Plant response rating, Surinam Grass
[11] = pre-emergence, Preemergence, scale 0 to 100, read-out: Plant response rating, Surinam Grass
[12] = post-emergence, Postemergence, scale 0 to 100 (0 no effect, 100 complete control), read-out: Goosegrass plant response rating
[13] = post-emergence, Postemergence, scale 0 to 100, read-out: Plant response rating, Goosegrass
[14] = pre-emergence, Preemergence, scale 0 to 100, read-out: Plant response rating, Goosegrass
[15] = post-emergence, Postemergence, scale 0 to 100 (0 no effect, 100 complete control), read-out: Foxtail, Giant plant response rating
[16] = post-emergence, Postemergence, scale 0 to 100, read-out: Plant response rating, Foxtail, Giant
[17] = pre-emergence, Preemergence, scale 0 to 100, read-out: Plant response rating, Foxtail, Giant
[18] = post-emergence, Postemergence, scale 0 to 100 (0 no effect, 100 complete control), read-out: Nutsedge, Yellow plant response rating
[19] = post-emergence, Postemergence, scale 0 to 100, read-out: Plant response rating, Nutsedge, Yellow
[20] = pre-emergence, Preemergence, scale 0 to 100, read-out: Plant response rating, Nutsedge, Yellow
[21] = post-emergence, Postemergence, scale 0 to 100 (0 no effect, 100 complete control), read-out: Lambsquarters plant response rating

SMILES: Nc1nc(C2CC2)nc(C(=O)OCc2ccccc2)c1Br [Compound 22, phenylmethyl 6-amino-5-bromo-2-cyclopropyl-4-pyrimidinecarboxylate]
- pest or weed control at 62 g/ha [1, 7]: 50%
- pest or weed control at 125 g/ha [1, 7]: 60%
- pest or weed control at 250 g/ha [1, 8]: 60%
- pest or weed control at 500 g/ha [1, 8]: 60%
- pest or weed control at 62 g/ha ([1]; pre-emergence, Preemergence, scale 0 to 100, 0 no effect, 100 complete control, read-out: Plant response rating, Bermudagrass): 0%
- pest or weed control at 125 g/ha [1, 9]: 50%
- pest or weed control at 250 g/ha [1, 9]: 50%
- pest or weed control at 500 g/ha [1, 9]: 90%
- pest or weed control at 125 g/ha ([2]; post-emergence, Postemergence, scale 0 to 100 (0 no effect, 100 complete control), read-out: Surinam Grass plant response rating): 60%
- pest or weed control at 500 g/ha [2, 10]: 85%
- pest or weed control at 62 g/ha ([2]; post-emergence, Postemergence, 62 g ai/ha, scale 0 to 100 (0 no effect, 100 complete control), read-out: Surinam Grass plant response rating): 55%
- pest or weed control at 250 g/ha [2, 10]: 85%
- pest or weed control at 125 g/ha [2, 11]: 90%
- pest or weed control at 250 g/ha [2, 11]: 100%
- pest or weed control at 500 g/ha [2, 11]: 100%
- pest or weed control at 62 g/ha [3, 12]: 10%
- pest or weed control at 125 g/ha [3, 12]: 10%
- pest or weed control at 250 g/ha [3, 13]: 20%
- pest or weed control at 500 g/ha [3, 13]: 25%
- pest or weed control at 62 g/ha ([3]; pre-emergence, Preemergence, scale 0 to 100, 0 no effect, 100 complete control, read-out: Plant response rating, Goosegrass): 0%
- pest or weed control at 125 g/ha [3, 14]: 0%
- pest or weed control at 250 g/ha [3, 14]: 80%
- pest or weed control at 500 g/ha [3, 14]: 100%
- pest or weed control at 125 g/ha [4, 15]: 45%
- pest or weed control at 500 g/ha [4, 16]: 60%
- pest or weed control at 62 g/ha [4, 15]: 40%
- pest or weed control at 250 g/ha [4, 16]: 50%
- pest or weed control at 62 g/ha ([4]; pre-emergence, Preemergence, scale 0 to 100, 0 no effect, 100 complete control, read-out: Plant response rating, Foxtail, Giant): 10%
- pest or weed control at 125 g/ha [4, 17]: 15%
- pest or weed control at 250 g/ha [4, 17]: 20%
- pest or weed control at 500 g/ha [4, 17]: 60%
- pest or weed control at 62 g/ha [5, 18]: 0%
- pest or weed control at 125 g/ha [5, 18]: 0%
- pest or weed control at 250 g/ha [5, 19]: 0%
- pest or weed control at 500 g/ha [5, 19]: 0%
- pest or weed control at 62 g/ha ([5]; pre-emergence, Preemergence, scale 0 to 100, 0 no effect, 100 complete control, read-out: Plant response rating, Nutsedge, Yellow): 0%
- pest or weed control at 125 g/ha [5, 20]: 0%
- pest or weed control at 250 g/ha [5, 20]: 95%
- pest or weed control at 500 g/ha [5, 20]: 95%
- pest or weed control at 62 g/ha [6, 21]: 90%
- pest or weed control at 125 g/ha [6, 21]: 95%
- pest or weed control at 250 g/ha ([6]; post-emergence, Postemergence, 250 g ai/ha, scale 0 to 100, read-out: Plant response rating, Lambsquarters): 95%
- pest or weed control at 500 g/ha ([6]; post-emergence, Postemergence, 500 g ai/ha, scale 0 to 100, read-out: Plant response rating, Lambsquarters): 95%
- pest or weed control at 62 g/ha ([6]; pre-emergence, Preemergence, scale 0 to 100, 0 no effect, 100 complete control, read-out: Plant response rating, Lambsquarters): 100%
- pest or weed control at 125 g/ha ([6]; pre-emergence, Preemergence, scale 0 to 100, read-out: Plant response rating, Lambsquarters): 100%
